The source of these data is patent publication US9078900B2 (priority 2008, dated 2015).

Structures are written as SMILES.

The conditions of the data set: at the end of the third month after implantation.

With `Cc1nc2n(c(=O)c1CCN1CCC(c3noc4cc(F)ccc34)CC1)CCCC2` [Risperidone, risperidone], the “presence of risperidone in the dog plasma” value is “still present at a high level”.
